Reference: US11578051B2, “Thiophene carboxamide derivative and plant disease control agent comprising same” (KOREA RESEARCH INSTITUTE OF CHEMICAL TECHNOLOGY, priority 2018, dated 2023)

Key:
Assay type in all cases: in vivo
[1] = test system: cucumber powdery mildew pathogen (Sphaerotheca fusca); test: Cucumber powdery mildew control effect test; settings: treatment concentration 10 ppm, as in Experimental Example 3
Experimental: A predetermined amount of the present compound corresponding to the test concentration was dissolved in 10% acetone and then was sprayed to foliage in a single leafy cucumber (variety: Baekdadagi) grown in a circular pot (6×7 cm, diameter×height). One day after application, the Cucumber plants were inoculated by spraying a spore suspension prepared with spores obtained from cucumber leaves infected with cucumber powdery mildew pathogen (Sphaerotheca fusca). After an incubation period of 1 day at 20° C. humid conditions, the plants were kept in a chamber for 12 days at a constant temperature and humidity under constant light conditions. After 13 days of the compound treatment, the disease incidence was assessed according to equation (1) of Experimental Example 1, and the control value was determined according to the criteria of Experimental Example 1. Compound No. 1 and the following four compounds as a comparative control compound were evaluated for controlling cucumber powdery mildew as described in Experimental Example 3.

[2] = test system: rice sheath blight pathogen (Rhizoctonia solani); test: Rice sheath blight control effect test; settings: rice (Chucheongbyeo), foliar spray, active ingredient 200 ppm, spraying dose 30 mL, assessed 5 days after treatment
Experimental: A predetermined amount of the present compound corresponding to the test concentration was dissolved in 10% acetone and then was sprayed to foliage in the 5-leaf stage rice (variety: Chucheongbyeo) grown in a circular pot (6×7 cm, diameter×height). One day after application, the rice plants were inoculated by spraying a mycelial suspension of a culture of rice sheath blight pathogen (Rhizoctonia solani) obtained by culturing in a rice bran culture medium and incubated to induce disease development for 5 days under a humid condition at 30° C. After 5 days of the compound treatment, the disease incidence was assessed according to the equation (1) of Experimental Example 1, and the control value was determined according to the criteria of Experimental Example 1.

[3] = test system: cucumber sclerotinia pathogen (Sclerotinia sclerotiorum); test: Cucumber sclerotinia disease control effect test; settings: cucumber (Baekdadagi), foliar spray, active ingredient 200 ppm, spraying dose 30 mL, assessed 4 days after treatment
Experimental: A predetermined amount of the present compound corresponding to the test concentration was dissolved in 10% acetone and then was sprayed to foliage in a single leafy cucumber (cultivar: Baekdadagi) grown in a circular pot (6×7 cm, diameter×height). One day after application, the Cucumber plants were inoculated by spraying a mycelial suspension of a liquid culture of cucumber sclerotinia pathogen (Sclerotinia sclerotiorum) and incubated for 4 days under constant light conditions and high humidity conditions at 25° C. to induce disease development. Four days after the compound treatment, the disease incidence was assessed according to equation (1) of Experimental Example 1, and the control value was determined according to the criteria of Experimental Example 1.

Row | Structure (SMILES) | Activity (control value criterion) [1] | control value criterion [2] | control value criterion [3]
1 | CON=Cc1ccc(-c2ccccc2NC(=O)c2cn(C)nc2C(F)F)cc1F [Comparative compound C, 3-(difluoromethyl)-N-(3′-fluoro-4′-((methoxyimino)methyl)-[1,1′-biphenyl]-2-yl)-1-methyl-1H-pyrazole-4-carboxamide] | 0 (less than 9% control value) |  | 
2 | CON=Cc1c(F)cc(-c2ccccc2NC(=O)c2c(C(F)F)nn(C)c2Cl)cc1F [Comparative compound D, 5-chloro-N-(3′,5′-difluoro-4′-((methoxyimino)methyl)-[1,1′-biphenyl]-2-yl)-3-(difluoromethyl)-1-methyl-1H-pyrazole-4-carboxamide] | 1 (Control value 10-29%) |  | 
3 | CON=Cc1ccc(-c2ccccc2NC(=O)c2cn(C)nc2C(F)F)cc1 [Comparative compound A, 3-(difluoromethyl)-N-(4′-((methoxyimino)methyl)-[1,1′-biphenyl]-2-yl)-1-methyl-1H-pyrazole-4-carboxamide] | 0 (less than 9% control value) |  | 
4 | CON=Cc1ccc(-c2ccccc2NC(=O)c2sccc2C)cc1 [Comparative compound B, N-(4′-((methoxyimino)methyl)-[1,1′-biphenyl]-2-yl)-3-methylthiophene-2-carboxamide] | 1 (Control value 10-29%) |  | 
5 | CON=Cc1c(F)cc(-c2ccccc2NC(=O)c2sccc2C)cc1F [Compound 1, N-(3′,5′-difluoro-4′-((methoxyimino)methyl)-[1,1′-biphenyl]-2-yl)-3-methylthiophene-2-carboxamide] | 5 (Control value 90-100%) | 5 (Control value 90-100%) | 5 (Control value 90-100%)
